In patent US9623063B2, “Extracts from Ajuga reptans cell lines, their preparation and use” (I.R.B. ISTITUTO DI RICERCHE BIOTECNOLOGICHE S.r.l., priority 2005, dated 2017):

What was measured:
A549 cells (ATCC-CCL185) = test: BSO-induced oxidative stress, ROS by DCF fluorimetry in A549 cells; format: cell-based, human; settings: with BSO, control without BSO = 100
Description: 10×10^5 A549 cells (ATCC-CCL185) have been seeded into wells with 3 ml of DMEM/F12K HAM medium (Sigma-Aldrich) with 10% FCS and incubated at 37° C. in a 5% CO2, water vapour saturated atmosphere. After 24 hours the culture medium is replaced by medium supplemented with BSO, which is left in contact with the cells for 20 hours. The medium is once again replaced with medium containing BSO in the presence or absence of the test compound. After 4 hours, quantitative measurement of the ROSs (hydroxyl radicals) is performed by washing the cells with phosphate buffer and then incubating them with 30 μM DCF-DA in buffer solution. At the end of a 15 minute incubation, excess DCF-DA is removed from the cells by washing, prior to measuring the fluorescence emitted.
Antioxidant activity measurements are performed using a (Hitachi F3010) spectrophotometer with excitation at 488 nm and measuring emission at 525 nm, and values are expressed in pmoles, by extrapolation from the calibration curve constructed using known quantities of DCF, and in relation to total cellular protein. Values are thus expressed in % ages with respect to the ROS content of the cells not subjected to treatment with BSO (control) to which are assigned a value of 100.
The Extracts 1 and 2, Teupolioside and Ascorbic Acid were solubilized in phosphate buffer 10 mM at pH 7.4, whereas trolox was solubilized in 0.1% of dimethylsulphoxide and culture medium.

[1] = Hydroxyl radical scavenger activity (Fenton reaction, luminol chemiluminescence); format: biochemical; settings: means of 6 independent assays
From the text: (§1) Ajuga reptans Extracts 1 and 2, prepared as described in examples 1 and 2, and isoteupolioside have been used to assess in vitro antioxidant action with specific oxygen radical generating systems such as the superoxide anion (O2^−), the hydroxyl radical (HO^−), the peroxynitrite radical (ONOO^−) and the inhibition of lipid peroxidation. The superoxide anion has been measured by a chemiluminescent assay based on the hypoxanthine (HPX)/xanthine oxidase (XOD) reaction using the Lumimax Superoxide Anion Detection Kit (Stratagene, La Jolla, Calif., USA) and following the manufacturer's instructions. Hydroxyl radical scavenger activity has been measured by means of the Fenton reaction for the production of hydroxyl radicals and chemiluminescent dosage (using a Victor^3 chemiluminometer, Wallac, Finland) with luminol. Peroxynitrite ions have been determined by means of dosage with a spontaneous generator of peroxynitrites (3-morpholinosidnonimine hydrochloride; SIN-1) and a stable reagent for the nitroxyl ions (2-(4-carboxyphenyl)-4,4,5,5-tetramethylimidazoline-1-oxyl-3-oxide potassium salt PTIO spin trap) then dosed by means of electron spin resonance (ESR) using a Nippon Denshi JES-FR30. Lipid peroxidation has been generated using Fe^2+ induced-oxygen reactive species, and detected using thiobarbituric acid in accordance with Buege, J A & Aust, S D: Microsomal lipid peroxidation (Methods Enzymol.
The Extract 1 and the Extract 2 set forth in Table 4 are derived from Ajuga reptans cell cultures comprising the phenylpropanoids at 90% and 54%, respectively. The results are expressed as the concentration inhibiting 50% of activity (IC50), means of 6 independent assays.

[2] = Peroxynitrite scavenging (SIN-1, PTIO spin trap, ESR); format: biochemical; settings: means of 6 independent assays
From the text: as §1, with “The” for “Ajuga reptans Extracts 1 and 2, prepared as described in examples 1 and 2, and isoteupolioside have been used to assess in vitro antioxidant action with specific oxygen radical generating systems such as the superoxide anion (O2^−), the hydroxyl radical (HO^−), the peroxynitrite radical (ONOO^−) and the inhibition of lipid peroxidation. The”
(§2) The results are expressed as the concentration inhibiting 50% of activity (IC50), means of 6 independent assays.

[3] = Superoxide anion chemiluminescent assay (hypoxanthine/xanthine oxidase, Lumimax kit); format: biochemical; settings: means of 6 independent assays
From the text: as §1, with “The” for “Ajuga reptans Extracts 1 and 2, prepared as described in examples 1 and 2, and isoteupolioside have been used to assess in vitro antioxidant action with specific oxygen radical generating systems such as the superoxide anion (O2^−), the hydroxyl radical (HO^−), the peroxynitrite radical (ONOO^−) and the inhibition of lipid peroxidation. The”
as §2

3T3 fibroblasts = test: BSO-induced oxidative death of 3T3 fibroblasts (MTT); format: cell-based, BALB/c mouse; settings: 1 mM; BSO 200 μM, 24 hours
tyrosinase [4] = test: Tyrosinase inhibition, conversion of L-DOPA to DOPAquinone; format: biochemical; settings: 100 μg/ml
From the text: (§3) The enzyme tyrosinase catalyses the reactions leading to melanin biosynthesis from tyrosine. […] Substances inhibiting tyrosinase activity produce a clearing/bleaching effect on the skin, since they block melanin synthesis. The method used to determine the inhibition of tyrosinase activity in the oxidation reaction of L-tyrosine to L-DOPA is that described in Kim et al. […] Biol. Pharm. […] The method applied for determination of the inhibition of tyrosinase activity in the conversion of L-DOPA to DOPAquinone is that described in Masamoto et al. (Mushroom tyrosinase inhibitory activity of esculetin isolated from seeds of Euphorbia lathyris L. Biosci. Biotechnol. Biochem., 67(3), 631-634, 2003).

tyrosinase [5] = test: Tyrosinase inhibition, oxidation of L-tyrosine to L-DOPA; format: biochemical; settings: 250 μg/ml
From the text: as §3

Structure (SMILES): Cc1c(C)c2c(c(C)c1O)CCC(C)(C(=O)O)O2 (stereo not shown) [Trolox]
- % ROS in picomoles (A549 cells (ATCC-CCL185); 20 μM): 125 ± 8 %

Structure (SMILES): O=C1c2c(O)cccc2C([C@@H]2O[C@H](CO)[C@@H](O)[C@H](O)[C@H]2O)c2cc(CO)cc(O)c21 (stereo partly shown) [Aloin, reference compound]
- Hydroxyl radial (IC50) [1]: 2.9 µg/mL
- Peroxynitrite radical (IC50) [2]: 12.3 µg/mL
- Superoxide radical (IC50) [3]: 7.6 µg/mL

Structure (SMILES): O=C1O[C@H]([C@@H](O)CO)C(O)=C1O [Ascorbic acid, reference compound]
- % ROS in picomoles (A549 cells (ATCC-CCL185); 1 mM): 130 ± 10 %
- % survived cells (3T3 fibroblasts): 72.3%

Structure (SMILES): O=c1cc(CO)occ1O [Kojic acid, reference compound]
- Test LDOPA-DOPAquinone inhibitory activity (%) (tyrosinase [4]): 35%
- Test L-tyrosine-DOPA inhibitory activity (%) (tyrosinase [5]): 94.1%

Structure (SMILES): Oc1cccc(O)c1 [Resorcinol, reference compound]
- Test LDOPA-DOPAquinone inhibitory activity (%) (tyrosinase [4]): 0%
- Test L-tyrosine-DOPA inhibitory activity (%) (tyrosinase [5]): 56.9%
